Values of other authors, collected in patent US11058694B2, “Nutritional supplements for growth enhancement in pre-pubertal adolescents” (Nutritional Growth Solutions LTD, priority 2014, dated 2021).

Experiments:
[1] = 33 randomized controlled intervention trials
[2] = versus placebo, daily syrup for six months
[3] = 6-12 months follow-up, normal serum zinc levels

Q: What does the source list for `[Fe]` [iron]?
A: increase in hemoglobin concentrations, effect size (iron interventions, 95% CI: 0.46, 2.51): 1.49; effect of supplementation intervention on child growth (iron supplementation): no significant effect

Q: What does the source list for `[Zn]` [zinc]?
A: responses in height and in weight increments [1]: significant positive responses; mean height for age Z-score [2]: decreased to a greater extent than placebo; height or weight-SDS [3]: did not significantly changed

Q: Which “effect of supplementation interventions on growth” value (vitamin A supplementation) does the source give for vitamin A here?
A: The value was “no significant effect on growth”.
